The source of these data is patent US9802929B2, “Benzo five-membered nitrogen heterocyclic piperidine or piperazine derivatives and preparation methods and pharmaceutical compositions thereof” (Shenyang Haiwang Biotechnology Co., Ltd., priority 2012, dated 2017).

In the assay the test system is In-Vitro Vascular Smooth Muscle of Rabbits. Description: Relaxant effect on in vitro rabbit vascular smooth muscle contraction induced by hyperkalemia solution. To be noted: Oryctolagus cuniculus, relaxation of rabbit aortic rings contracted by hyperkalemia solution (K+ 60 mmol/L).

Turning to `Clc1cccc(C2CCN(CCCCn3cnc4ccccc43)CC2)c1` [Compound II-1, N-(4-(1H-benzimidazol-1-yl)butyl)-4-(3-chlorophenyl)piperidine], the EC50 is 20.4 µM.
On to `FC(F)(F)c1cccc(C2CCN(CCCCn3cnc4ccccc43)CC2)c1` [Compound II-3, N-(4-(1H-benzimidazol-1-yl)butyl)-4-(3-trifluoromethylphenyl)piperidine], for which the EC50 is 0.977 µM.
The result for `COc1ccccc1C1CCN(CCCCn2cnc3ccccc32)CC1` [Compound II-6, N-(4-(1H-benzimidazol-1-yl)butyl)-4-(2-methoxyphenyl)piperidine] reads 41.7 µM; that for `FC(F)(F)c1cccc(C2CCN(CCCCn3nnc4ccccc43)CC2)c1` [II-4, N-(4-(1H-benzotriazole-1-yl)butyl)-4-(3-trifluoromethylphenyl)piperidine], 0.759 µM.
On to `Fc1cccc(C2CCN(CCCCn3cnc4ccccc43)CC2)c1` [II-5, N-(4-(1H-benzimidazol-1-yl)butyl)-4-(3-fluorophenyl)piperidine], for which the EC50 was 36.3 µM.
Consider `Fc1ccc2nnn(CCCCN3CCC(c4cccc(C(F)(F)F)c4)CC3)c2c1` [II-7, N-(4-(6-fluoro-1H-benzotriazole-1-yl)butyl)-4-(3-trifluoromethylphenyl)piperidine], for which the concentration for a half-maximal effect (EC50) is 9.33 µM.
`COc1ccc2nnn(CCCCN3CCC(c4cccc(C(F)(F)F)c4)CC3)c2c1` [II-8, N-(4-(6-methoxy-1H-benzotriazole-1-yl)butyl)-4-(3-trifluoromethylphenyl)piperidine] gave an EC50 of 27.5 µM.
In turn, `N#Cc1ccc2nnn(CCCCN3CCC(c4cccc(C(F)(F)F)c4)CC3)c2c1` [II-9, N-(4-(6-cyano-1H-benzotriazole-1-yl)butyl)-4-(3-trifluoromethylphenyl)piperidine] gave an EC50 of 58.9 µM.
For `FC(F)(F)c1cccc(C2CCN(CCCOn3nnc4ccccc43)CC2)c1` [II-10, N-(4-(1H-benzotriazole-1-yl)propoxy)-4-(3-trifluoromethylphenyl)piperidine], the response was half-maximal at 6.03 µM (EC50).
`FC(F)(F)c1cccc(C2CCN(CCCOn3cnc4ccccc43)CC2)c1` [II-11]: a half-maximal effect (EC50) was put at 6.76 µM.
Take `Cc1ccc2c(C3CCN(CCCn4nnc5ccccc54)CC3)noc2c1` [II-12, N-(3-(1H-benzotriazole-1-yl)propyl)-4-(3-(6-methyl-benzisoxazole))piperidine]: the EC50 was 8.13 µM.
The molecule `COc1ccc2c(C3CCN(CCCn4nnc5ccccc54)CC3)noc2c1` [II-13, N-(3-(1H-benzotriazole-1-yl)propyl)-4-(3-(6-methoxy-benzene and isoxazole))piperidine] gave a 50% effective concentration (EC50) of 7.59 µM.
Molecule `Fc1ccc2c(C3CCN(CCCn4nnc5ccc(F)cc54)CC3)noc2c1` [II-14, N-(3-(6-fluoro-1H-benzotriazole-1-yl)propyl)-4-(3-(6-fluorobenzoisoxazole))piperidine] gave an EC50 of 1.91 µM.
In the case of `Fc1ccc2c(C3CCN(CCCn4nnc5ccc(Cl)cc54)CC3)noc2c1` [II-15, N-(3-(6-chloro-1H-benzotriazole-1-yl)propyl)-4-(3-(6-fluorobenzoisoxazole))piperidine], the half-maximal effective concentration (EC50) was 7.59 µM.
Molecule `Cc1ccc2nnn(CCCN3CCC(c4noc5cc(F)ccc45)CC3)c2c1` [II-16, N-(3-(6-methyl-1H-benzotriazole-1-yl)propyl)-4-(3-(6-fluorobenzoisoxazole))piperidine] showed an EC50 of 5.25 µM.
The molecule `O=Cc1ccc2nnn(CCCN3CCC(c4noc5cc(F)ccc45)CC3)c2c1` [II-18, N-(3-(6-formyl-1H-benzotriazole-1-yl)propyl)-4-(3-(6-fluorobenzoisoxazole))piperidine] had an EC50 of 4.79 µM.
The result for `COc1ccc2nnn(CCCN3CCC(c4noc5ccccc45)CC3)c2c1` [II-19, N-(3-(6-methoxybenzotriazolyl)propyl)-4-(3-benzoisoxazole)piperidine] reads 7.76 µM; that for `COc1ccc2c(C3CCN(CCCCn4nnc5ccc(C#N)cc54)CC3)noc2c1` [II-23, N-(4-(6-cyano-benzotriazole-yl)butyl)-4-(3-(6-methoxy-benzene and isoxazole)) piperidine], 58.9 µM; that for `c1coc(C2CCN(CCCCn3cnc4ccccc43)CC2)c1` [II-29, N-(4-(1H-benzimidazol-1-yl)butyl)-4-(2-furyl)piperidine], 29.5 µM.
Regarding `c1ccc2c(c1)ncn2CCCCN1CCC(c2ccncc2)CC1` [II-30, N-(4-(1H-benzimidazol-1-yl)butyl)-4-(4-pyridyl)piperidine], the EC50 is 55 µM.
With `c1cnc(C2CCN(CCCCn3cnc4ccccc43)CC2)nc1` [II-31, N-(4-(1H-benzimidazol-1-yl)butyl)-4-(2-pyrimidinyl)piperidine], the response was half-maximal at 47.9 µM (EC50).
For the molecule `c1ccc2c(c1)nnn2CCCCN1CCC(C2CCCCC2)CC1` [II-32, N-(4-(1H-benzotriazole-1-yl)butyl)-4-cyclohexyl piperidine], the EC50 is 72.4 µM.
Regarding `c1ccc2c(C3CCN(CCCCn4nnc5ccccc54)CC3)cccc2c1` [II-33, N-(4-(1H-benzotriazole-1-yl)butyl)-4-(1-naphthyl)piperidine], the half-maximal effective concentration (EC50) is 91.2 µM.
As to `c1ccc2nc(C3CCN(CCCCn4nnc5ccccc54)CC3)cnc2c1` [II-34, N-(4-(1H-benzotriazole-1-yl)butyl)-4-(2-quinoxalinyl)piperidine], a half-maximal effect (EC50) was put at 74.1 µM.
The result for `N#Cc1ccc2nnn(CCCCN3CCN(c4cccc(C(F)(F)F)c4)CC3)c2c1` [II-84, 6-cyano-1-(4-(4-(3-trifluoromethylphenyl)piperazin-1-yl)butyl)-1H-benzotriazole] reads 49 µM.
`COC(=O)c1ccc2nnn(CCCCN3CCN(c4cccc(C(F)(F)F)c4)CC3)c2c1` [II-85, 6-methoxycarbonyl-1-(4-(4-(3-trifluoromethylphenyl)piperazin-1-yl)butyl)-1H-benzotriazole] had an EC50 of 77.6 µM.

One may read the EC50 as the concentration that produces a half-maximal response. Low readings indicate a more potent agent, high ones a less potent agent.
